Assay results: ChEMBL document CHEMBL1137173, “Synthesis of an unusual branched-chain sugar, 5-C-methyl-L-idopyranose for SAR studies of pyranmycins: implication for the future design of aminoglycoside antibiotics” (2004)
Converted amounts (≈) assume the structure as drawn.

Columns and labels:
Ribosomal RNA A-site = assay: Binding affinity towards decoding region at A-site of 16s rRNA; type: nucleic-acid assay; parameters: unit not given here
Staphylococcus aureus = assay: Minimum inhibitory concentration required against Staphylococcus aureus; type: functional
Escherichia coli = assay: Minimum inhibitory concentration required against Escherichia coli; type: functional
[1] = Staphylococcus aureus, read-out: MIC
[2] = Escherichia coli, read-out: MIC

Row | SMILES | Activity (Ribosomal RNA A-site) | MIC (Staphylococcus aureus; [1]) [µM] | MIC (Escherichia coli; [2]) [µM] | MIC (Staphylococcus aureus) [µM] | MIC (Escherichia coli) [µM]
1 | C[C@@H]1O[C@@H](O[C@@H]2[C@H](O)[C@H](N)C[C@@H](N)[C@H]2O[C@H]2O[C@@H](CN)[C@@H](O)[C@H](O)[C@@H]2N)[C@@H](O)[C@@H](O)[C@@H]1O (stereo in doubt; form 1) | -320 |  |  |  | 
2 | C[C@@H]1O[C@@H](O[C@@H]2[C@H](O)[C@H](N)C[C@@H](N)[C@H]2O[C@H]2O[C@@H](CN)[C@@H](O)[C@H](O)[C@@H]2N)[C@@H](O)[C@@H](O)[C@@H]1O.Cl.Cl.Cl.Cl (stereo in doubt; form 2) |  |  |  | 13 | 19
3 | NC[C@@H]1O[C@H](O[C@H]2[C@H](O[C@@H]3OC(CO)(CO)[C@@H](O)[C@H](O)[C@@H]3O)[C@H](O)[C@H](N)C[C@H]2N)[C@@H](N)[C@@H](O)[C@@H]1O | -315 | 7 (≈ 3.6 µg/mL) | 22 (≈ 11.3 µg/mL) |  | 
4 | C[C@@H]1O[C@@H](O[C@@H]2[C@H](O)[C@H](N)C[C@@H](N)[C@H]2O[C@H]2O[C@@H](CN)[C@@H](O)[C@H](O)[C@@H]2N)[C@@H](O)[C@@H](O)[C@@H]1O.Cl.Cl.Cl.Cl (stereo in doubt; form 1) |  | 15 |  |  | 91
5 | NC[C@@H]1O[C@H](O[C@H]2[C@@H](O)[C@H](O[C@@H]3[C@@H](O)[C@H](N)C[C@H](N)[C@H]3O[C@H]3O[C@H](CN)[C@@H](O)[C@H](O)[C@H]3N)O[C@@H]2CO)[C@H](N)[C@@H](O)[C@@H]1O [FRAMYCETIN] | -474 | 3 (≈ 1.84 µg/mL) | 2 (≈ 1.23 µg/mL) |  | 
6 | C[C@]1(CO)O[C@@H](O[C@@H]2[C@H](O)[C@H](N)C[C@@H](N)[C@H]2O[C@H]2O[C@@H](CN)[C@@H](O)[C@H](O)[C@@H]2N)[C@@H](O)[C@@H](O)[C@@H]1O | -318 | 27 (≈ 13.5 µg/mL) | 87 (≈ 43.4 µg/mL) |  | 

Results, then the compound that gave them:

Row | Activity (Ribosomal RNA A-site) | MIC (Staphylococcus aureus; [1]) [µM] | MIC (Escherichia coli; [2]) [µM] | MIC (Staphylococcus aureus) [µM] | MIC (Escherichia coli) [µM] | SMILES
7 | -394 | 2 (≈ 0.967 µg/mL) | 9 (≈ 4.35 µg/mL) |  |  | NC[C@@H]1O[C@H](O[C@H]2[C@H](O[C@@H]3O[C@H](CN)[C@@H](O)[C@H](O)[C@@H]3O)[C@H](O)[C@H](N)C[C@H]2N)[C@@H](N)[C@@H](O)[C@@H]1O
8 | -314 |  |  |  |  | C[C@@H]1O[C@@H](O[C@@H]2[C@H](O)[C@H](N)C[C@@H](N)[C@H]2O[C@H]2O[C@@H](CN)[C@@H](O)[C@H](O)[C@@H]2N)[C@@H](O)[C@@H](O)[C@@H]1O (stereo in doubt; form 2)
9 | -320 | 3 (≈ 1.45 µg/mL) | 11 (≈ 5.33 µg/mL) |  |  | NC[C@@H]1O[C@H](O[C@H]2[C@H](O[C@@H]3O[C@H](CO)[C@@H](O)[C@H](O)[C@@H]3O)[C@H](O)[C@H](N)C[C@H]2N)[C@@H](N)[C@@H](O)[C@@H]1O
